PubChem BioAssay AID179 (DTP/NCI, 2004)
Calls of active or inactive are those of the source.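 The calls were made as follows: active = compounds giving half or more protection of infected cells from virus-caused growth loss, again on retest; inactive = the rest.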

Test system: CEM cells HIV-1 protection, formazan growth assay
Assay: NCI AIDS Antiviral Assay
Conditions: for IC50: measured here: growth of uninfected CEM cells
Procedure, shortened: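 Screen of anti-HIV-1 activity in human CEM cells using a formazan-based growth measurement at five drug concentrations. Hits with 50% or greater protection were repeated, and confirmation required reproducible complete protection.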

| Compound | EC50 | IC50 | outcome |
| --- | --- | --- | --- |
| COC(=O)N/N=C(\C)C(CN1CCOCC1)C(c1ccccc1)c1cc2ccccc2oc1=O (stereo not given) | > 83.2 µM | 61.7 µM | – |
| C[C@@H]1C[C@@H](O)[C@@]2(O)C13CC(=O)OC(C3)[C@@H](C)[C@@]2(C)CO (stereo not given in full) | > 200 µM | > 200 µM | – |
| Nc1nc(CCC(=O)Nc2cccc(C(F)(F)F)c2)cc(-c2ccc3ccccc3c2)n1 | > 575 µM | > 575 µM | – |
| COC(c1ccsc1)C(C#N)(C#N)N=Cc1ccsc1 (stereo not given) | > 200 µM | 16.2 µM | – |
| O=C(NC1=C(Cl)C(=O)c2ccccc2C1=O)C(=O)c1c(O)c2ccccc2oc1=O | > 117 µM | > 117 µM | – |
| Nc1nc([O-])c([I+]c2ccccc2)c(=O)[nH]1 | > 200 µM | > 200 µM | – |
| OCc1ccc2c(c1)CC1(Cc3ccc(/C=N/O)cc3C1)C2 (stereo not given) | > 200 µM | 0.891 µM | – |
| O=c1cc(NNCc2ccccc2)[nH]c(=O)[nH]1 | > 200 µM | 57.5 µM | – |
| CN1CCCC1CCNc1nc(C(Cl)(Cl)Cl)nc2cc(Cl)ccc12 (stereo not given) | > 24.5 µM | 12.9 µM | – |
| Cc1cc(NS(=O)(=O)c2ccc(Nc3c4ccccc4nc4c(C(=O)NC=O)cccc34)cc2)no1 | > 200 µM | 12.3 µM | – |
| C=C(C)C#CC(O)(C(=O)OC1CCN(C)CC1)C(C)C (stereo not given) | > 200 µM | > 200 µM | – |
| CCC[n+]1noc(N)n1 | > 1510 µM | > 1510 µM | – |
| COC1/C=C\OC2(C)Oc3c(C)c(O)c4c(O)c(c(/C=N\OCCO)c(O)c4c3C2=O)NC(=O)/C(C)=C\C=C/C(C)C(O)C(C)C(O)C(C)C(OC(C)=O)C1C (stereo not given) | 16.2 µM | 126 µM | – |
| CCN1/C(=C/C#C/C(C)=C\c2sc3ccc(Cl)cc3[n+]2CC)Sc2ccc(Cl)cc21 | > 20 µM | 2.24 µM | – |
| COc1cc2ccc1OCc1cccc(n1)COc1ccc(cc1OC)C=NCCNCCNCCN=C2 | > 200 µM | 110 µM | – |
| O=C1OC(C(O)CO)C(C(O)CO)OC1=O (stereo not given) | > 200 µM | > 200 µM | – |
| O=C1C=C(CCC2=CC(=O)c3ccccc3C2=O)C(=O)c2ccccc21 | > 200 µM | 91.2 µM | – |
| C/C(CC(=O)Nc1cccc(Cl)c1C)=N\N=C(N)N | > 91.2 µM | > 91.2 µM | – |
| CN(C)c1ccc(C(=C(c2ccc(N(C)C)cc2)c2ccc(N(C)C)cc2)c2ccc(N(C)C)cc2)cc1 | > 24.5 µM | 1 µM | – |
| CCN(CC)c1ccc2cc(-n3nnc4ccccc43)c(=O)oc2c1 | > 8.13 µM | > 8.13 µM | – |
| CC(C)OC(=O)c1ccc(CCc2cc(O)c(Br)cc2O)cc1 | > 200 µM | 8.32 µM | – |
| Cc1ccc(S(=O)(=O)n2cc(/C=C/C#N)c(-c3cn(S(=O)(=O)c4ccc(C)cc4)cc3-c3cn(S(=O)(=O)c4ccc(C)cc4)cc3/C=C/C#N)c2)cc1 | > 200 µM | > 200 µM | – |

| Compound | EC50 | IC50 | outcome |
| --- | --- | --- | --- |
| c1cc[c]([Sn]([O]c2cccc3cccnc23)([O]c2cccc3cccnc23)[c]2ccccc2)cc1 | – | – | inactive |
| CCOC(O)(NC(=O)C(C(F)(F)F)C(F)(F)F)C(F)(F)F (stereo not given) | > 200 µM | > 200 µM | – |
| O=C(C=Nc1ccccc1C(=O)O)c1ccco1 | > 8.32 µM | > 8.32 µM | – |
| COc1ccc2c(c1)CC1(O)COc3cc(OC)ccc3C1O2 (stereo not given) | > 200 µM | 67.6 µM | – |
| CC1CCCC2(O1)OC1CC(=O)OC1C1=C2C(=O)c2ccccc2C1=O (stereo not given) | > 87.1 µM | 0.417 µM | – |
| COc1ccc2nc(NC(=O)C(=O)C(C(=O)c3ccccc3-c3ccccc3)C3OC(=O)c4ccccc43)sc2c1 (stereo not given) | > 45.7 µM | 25.1 µM | – |
| Cc1nc2ccccc2c(=O)n1NC(=O)c1ccc(N)cc1 | > 200 µM | > 200 µM | – |
| Cc1ccc(S(=O)C[C@@]2(C(F)F)NC(=O)NC2=O)cc1 (stereo not given in full) | > 200 µM | 178 µM | – |
| CC(C)(C)OC(=O)N[C@H]1CC2(C=C(Cl)C(=O)C(Cl)=C2)OC1=O | – | – | inactive |
| CCOC(=S)SC1OC(COC(C)=O)C(OC(C)=O)C(OC(C)=O)C1OC(C)=O (stereo not given) | > 200 µM | 35.5 µM | – |
| O=S1C=C(C2=COCCC2)OC1 (stereo not given) | > 195 µM | > 195 µM | – |
| Cc1cc(N(CCC#N)CCC#N)ccc1/C(N=Nc1ccc(C(=O)O)cc1)=N\NC(=O)c1ccccc1 | > 200 µM | 13.5 µM | – |
| CC1CCc2c(c(CC3CC(=O)NC(=O)C3)nn2-c2ccccc2)C1 (stereo not given) | > 200 µM | > 200 µM | – |
| N#CC1=C(S)N(C2OC(CO)C(O)C(O)C2O)C(c2ccccc2)=CC1c1ccco1 (stereo not given) | > 200 µM | 42.7 µM | – |
| CC(=O)OC12c3ccccc3-c3ccccc3C1C(C(=O)O)C2(Cl)C(=O)O (stereo not given) | > 646 µM | 355 µM | – |
| CC(C)(C)c1cc(C(=O)[O-])c([OH2+])c(C(C)(C)C)c1.CC(C)(C)c1cc(C(=O)[O-])c([OH2+])c(C(C)(C)C)c1.[Mn+2] | > 85.1 µM | 33.9 µM | – |
| CC(C)C1CNC2N1C(=O)C2(C)OCc1ccccc1 (stereo not given) | > 251 µM | 155 µM | – |
| Fc1ccccc1C1CC(C(c2ccccc2)c2ccccc2)=Nc2ccccc2S1 (stereo not given) | > 6.46 µM | > 6.46 µM | – |
| CC(=O)C(=Cc1ccc(O)cc1)C(C)=O | > 1230 µM | 75.9 µM | – |
| O=[N+]([O-])c1ccc(-c2cn(-c3ccc(Cl)cc3)cn2)cc1 | > 100 µM | > 100 µM | – |
| COC(=O)CSc1[nH]c2nc(C)nc(Nc3ccccc3)c2c1C#N | > 200 µM | > 200 µM | – |
| N#C/C(=C\c1ccc(Cl)cc1)c1nc(-c2cc3ccccc3oc2=O)cs1 | > 151 µM | > 151 µM | – |

| Compound | EC50 | IC50 | outcome |
| --- | --- | --- | --- |
| CC1=C(C(=O)Nc2ccccc2)C(c2ccc3c(c2)OCO3)C(C(=O)Nc2ccccc2)=C(C)N1 | > 11.2 µM | > 11.2 µM | – |
| O=C1/C(=C/c2ccco2)NC(=S)N1CN1CCOCC1 | > 200 µM | 91.2 µM | – |
| O=C(OCc1ccccc1)C1(N2CN(C3(C(=O)OCc4ccccc4)CCCC3)CN(C3(C(=O)OCc4ccccc4)CCCC3)C2)CCCC1 | > 200 µM | 35.5 µM | – |
| CCC1CN2CCC3(c4ccccc4)CC(C(=O)OC)=CC1C23 (stereo not given) | > 251 µM | 38.9 µM | – |
| CC1(C)CCCC2C1=NOC2O (stereo not given) | > 1480 µM | > 1480 µM | – |
| CN(C(=O)CC(=O)CP(=O)(c1ccccc1)c1ccccc1)c1ccccc1 | > 200 µM | 135 µM | – |
| CCCc1cc(=O)oc2c3c(cc(OS(=O)(=O)c4ccc(C)cc4)c12)O[C@H](C)[C@H](C)C3=O | > 151 µM | 95.5 µM | – |
| COc1ccc(C2c3ccccc3C3(O)CC2CC(=O)O3)cc1 (stereo not given) | > 200 µM | > 100 µM | – |
| CCCCCCCCC(O)c1ccc(/C=C\C(O)CCCC(=O)O)s1 (stereo not given) | > 63.1 µM | > 63.1 µM | – |
| CC[C@H]1CN2CCc3cc(OC)c(OC)cc3[C@@H]2C[C@@H]1C[C@H]1NCCc2c1[nH]c1ccc(O)cc21 | – | – | inactive |
| O=c1[nH]nc(Cc2ccccc2)n1O | > 200 µM | > 200 µM | – |
| CC(=O)N(C)C(c1ccccc1)(c1ccccc1)c1ccccc1 | > 200 µM | 35.5 µM | – |
| O=C(O)c1ccc(CS(=O)c2ccc([N+](=O)[O-])cc2)c([N+](=O)[O-])c1 (stereo not given) | > 708 µM | 501 µM | – |
| O=[N+]([O-])c1cccc2nc3ccccc3c(NCCc3cccc[n+]3[O-])c12 | > 200 µM | 0.0631 µM | – |
| COc1ccc(-c2coc3c4c(c(CC=C(C)C)c(O)c3c2=O)OC(C)(C)C=C4)cc1OC | > 100 µM | > 100 µM | – |
| O=C1C(=O)c2ccccc2C(O)=C1C(C1=C(O)c2ccccc2C(=O)C1=O)c1ccc(Cl)c(Cl)c1 | > 200 µM | 18.6 µM | – |
| Cc1cc(N(CCC#N)CCC#N)ccc1/C(N=Nc1cccc([N+](=O)[O-])c1)=N/NC(=O)c1cc(Cl)ccc1O | > 200 µM | 12 µM | – |
| Cc1cc(C(=O)Nc2ccc(NC3=NCCN3)cc2)c(C)cc1C(=O)Nc1ccc(NC2=NCCN2)cc1 | > 200 µM | 20.4 µM | – |
| O=C(c1ccccc1)C(SSC(C(=O)c1ccccc1)C(=O)c1ccccc1)C(=O)c1ccccc1 | > 200 µM | 17.4 µM | – |
| Cc1ccc2c(c1)Nc1ccccc1C(=O)N2 | > 200 µM | > 200 µM | – |
| CC(C)(C)c1cc(/C=C/C(=O)CC(=O)/C=C/c2cc(C(C)(C)C)c(O)c(C(C)(C)C)c2)cc(C(C)(C)C)c1O | > 200 µM | > 200 µM | – |
| COc1cccc(NC(=O)c2c(SC)c(C#N)c(=O)n(N)c2N)c1 | > 200 µM | 107 µM | – |

| Compound | EC50 | IC50 | outcome |
| --- | --- | --- | --- |
| COC1/C=C/OC2(C)Oc3c(C)c(O)c4c(O)c(c(/C=N/N5CCOCC5)c(O)c4c3C2=O)NC(=O)C(C)=C/C=C/C(C)C(O)C(C)C(O)C(C)C(OC(C)=O)C1C (stereo not given) | > 200 µM | 35.5 µM | – |
| OCCN1CCN(CCCN2c3ccccc3Sc3ccc(C(F)(F)F)cc32)CC1 | > 200 µM | 10.2 µM | – |
| Nc1c2ccccc2nc2c1ccc1ncccc12 | > 200 µM | 6.46 µM | – |
| CN(C(=O)c1cccs1)C(=S)N1CCN(c2ccccc2)CC1 | > 55 µM | 30.9 µM | – |
| O=c1n(CCO)nc2n1CCCN2 | > 200 µM | > 200 µM | – |
| Cn1c2c(c(=O)c3cc(O)ccc31)CC(O)C(C)(C)O2 (stereo not given) | > 912 µM | 891 µM | – |
| OCCCCOC(c1ccccc1)(c1ccccc1)c1ccccc1 | > 15.8 µM | > 15.8 µM | – |
| C#Cc1ccccc1N1C(=O)C=CC1=O | > 251 µM | > 251 µM | – |
| COC(=O)c1ccc2c(c1)CC1(C2)Cc2cc3c(cc2C1=O)CCC3 (stereo not given) | > 200 µM | 20 µM | – |
| CC(C)c1cccc(C(C)C)c1O | > 200 µM | > 200 µM | – |
| CCC1(CC)O[C@H]([C@@H](O)CCc2ccccc2O)[C@@H]([C@@H](O)CCc2ccccc2O)O1 | > 200 µM | 33.1 µM | – |
| COC(=O)C1(Cc2ccccc2)Cc2ccc3c(c2C1=O)CCC3 (stereo not given) | > 200 µM | > 200 µM | – |
| CCCCCCCCCCCCCC(=O)NCC(OCC)OCC | – | – | inactive |
| N.N.N.N.N.N.[Br-].[Co+3] | – | – | inactive |
| CN=C1CC2c3cc(OC)c(OC)cc3CCN2C2=C1C(=O)CC(C)(C)C2 (stereo not given) | > 200 µM | > 200 µM | – |
| O=C1N(C2CCCCC2)C(=O)N1C1CCCCC1 | 8.32 µM | 17.8 µM | – |
| CC(=O)n1c(=S)n(C(C)=O)c2ccccc21 | > 200 µM | > 200 µM | – |
| CCOC(=N)CCCSSc1ccc(N=[N+]=[N-])cc1 | > 200 µM | 25.7 µM | – |
| N#C/C(N)=C(\C#N)NC=NCc1ccccc1 | > 200 µM | > 200 µM | – |
